Results as given in US8759104B2, “Cationic lipids” (The University Court of the University of Edinburgh, priority 2010, dated 2014).

System: HeLa cells
Experiment: Transfection of pEGFP-C1 reporter plasmid into HeLa cells, GFP expression by flow cytometry
Format: cell-based, human
Settings: HeLa cells 48 h after transfection with reporter plasmid, flow cytometry
Experimental: The corresponding cationic lipid (1 mM in methanol) were mixed in different proportions with DOPE (10 mg/mL in chloroform) and the organic solvent removed by evaporation in an oven (37° C.) overnight. The resultant thin films were then hydrated with PBS. The solutions were vortexed (10-20 s) and incubated at ambient temperature for 20 min. Plasmid DNA or siRNA solution (0.04 mg/mL in PBS or another isotonic solution) was subsequently added and the solution vortexed (10-20 s). The lipoplexes were incubated at room temperature for 20 min before being used.
Human HeLa cells were grown in RPMI supplemented with 4 mM glutamine, 10% FCS and 100 units/ml penicillin/streptomycin (RPMI-CM) until 80% confluence. HEK293 and B16F10 cells were grown in DMEM supplemented with 4 mM glutamine, 10% FCS and 100 units/ml penicillin/streptomycin (DMEM-CM) until 80% confluence. Cells were then suspended using trypsin/EDTA and counted. 2×10^4 cells in 150 μL of media per well were seeded in 96 well plates and incubated overnight. The day afterwards, the different lipoplex formulations were added. Each experiment was performed in quadruplicate, using Effectene® Transfection Reagent (Qiagen), Lipofectamine™ 2000 (Invitrogen) and Fugene (Roche) as positive controls and untreated cells as negative controls. After two days incubation at 37° C. and 5% CO2 (the change of media after transfection was not necessary), the green fluorescent protein (GFP) expression, as a consequence of transfecting the pEGFP-C1, was evidenced using a fluorescent microscope (Leica) and measured by flow cytometry. For the flow cytometry analysis, cells were washed twice with PBS, detached with trypsin/EDTA, harvested with 2% ferum bovine serum (FBS) in PBS, centrifuged and resuspended with 2% FBS in PBS and analyzed using a BD FACSaria flow cytometer. Transfection efficiency was measured as percentage of transfected cells.
Reagents that obtained greater than 50% transfection were also analyzed against HEK293 and B16F10 cell lines. Transfection results (+ percentages of transfection between 5-25%; ++ percentages of transfection between 25-50%; N.D. not determined). MTT toxicity assay results are indicated between brackets with 100% being cell viability of untreated cells.

SMILES	Transfection results (percentage of transfected cells), HeLa
CCCCCCCCCCCCCCCCCCCCCCCC(=O)NCCN(CCNC(=O)CCCCCCCCCCCCCCCCCCCCCCC)C(=O)CCC(=O)N[C@@H](CCCNC(=N)N)C(=O)N[C@@H](CCCNC(=N)N)C(N)=O.O=C(O)C(F)(F)F.O=C(O)C(F)(F)F [Compound A2-Sp1-L]	+ (percentages of transfection between 5-25%)
CCCCCCCCCCCCCCCCCCCC(=O)NCCCN(CCCNC(=O)CCCCCCCCCCCCCCCCCCC)C(=O)CCC(=O)N[C@@H](CCCNC(=N)N)C(=O)N[C@@H](CCCNC(=N)N)C(=O)N[C@@H](CCCNC(=N)N)C(N)=O.O=C(O)C(F)(F)F.O=C(O)C(F)(F)F.O=C(O)C(F)(F)F [Compound A3-Sp3-A]	+ (percentages of transfection between 5-25%)
CCCCCCCCCCCCCCCCCCCCCCCC(=O)NCCN(CCNC(=O)CCCCCCCCCCCCCCCCCCCCCCC)C(=O)CCC(=O)N[C@@H](CCCNC(=N)N)C(=O)N[C@@H](CCCNC(=N)N)C(=O)N[C@@H](CCCNC(=N)N)C(N)=O.O=C(O)C(F)(F)F.O=C(O)C(F)(F)F.O=C(O)C(F)(F)F [Compound A3-Sp1-L]	+ (percentages of transfection between 5-25%)
CCCCCCCC/C=C\CCCCCCCC(=O)NCCCN(CCCNC(=O)CCCCCCC/C=C\CCCCCCCC)C(=O)/C=C\C(=O)N[C@@H](CCCNC(=N)N)C(=O)N[C@@H](CCCNC(=N)N)C(=O)N[C@@H](CCCNC(=N)N)C(N)=O.O=C(O)C(F)(F)F.O=C(O)C(F)(F)F.O=C(O)C(F)(F)F [Compound A3-Sp4-O]	+ (percentages of transfection between 5-25%)
CCCCCCCCCCCCCCCCCCCCCCCC(=O)NCCCN(CCCNC(=O)CCCCCCCCCCCCCCCCCCCCCCC)C(=O)/C=C\C(=O)N[C@@H](CCCNC(=N)N)C(N)=O.O=C(O)C(F)(F)F [Compound A1-Sp4-L]	+ (percentages of transfection between 5-25%)
CCCCCCCCCCCCCCCCCCCC(=O)NCCN(CCNC(=O)CCCCCCCCCCCCCCCCCCC)C(=O)/C=C\C(=O)N[C@@H](CCCNC(=N)N)C(=O)N[C@@H](CCCNC(=N)N)C(=O)N[C@@H](CCCNC(=N)N)C(N)=O.O=C(O)C(F)(F)F.O=C(O)C(F)(F)F.O=C(O)C(F)(F)F [Compound A3-Sp2-A]	+ (percentages of transfection between 5-25%)
CCCCCCCC/C=C\CCCCCCCC(=O)NCCCN(CCCNC(=O)CCCCCCC/C=C\CCCCCCCC)C(=O)CCC(=O)N[C@@H](CCCNC(=N)N)C(N)=O.O=C(O)C(F)(F)F [Compound A1-Sp3-O]	++ (percentages of transfection between 25-50%)
CCCCCCCCCCCCCCCCCC(=O)NCCN(CCNC(=O)CCCCCCCCCCCCCCCCC)C(=O)/C=C\C(=O)N[C@@H](CCCNC(=N)N)C(N)=O.O=C(O)C(F)(F)F [Compound A1-Sp2-S]	+ (percentages of transfection between 5-25%)
CCCCCCCCCCCCCCCC(=O)NCCCN(CCCNC(=O)CCCCCCCCCCCCCCC)C(=O)/C=C\C(=O)N[C@@H](CCCNC(=N)N)C(=O)N[C@@H](CCCNC(=N)N)C(N)=O.O=C(O)C(F)(F)F.O=C(O)C(F)(F)F [Compound A2-Sp4-P]	+ (percentages of transfection between 5-25%)
CCCCCCCCCCCCCCCCCC(=O)NCCN(CCNC(=O)CCCCCCCCCCCCCCCCC)C(=O)CCC(=O)N[C@@H](CCCNC(=N)N)C(N)=O.O=C(O)C(F)(F)F [Compound A1-Sp1-S]	+ (percentages of transfection between 5-25%)
CCCCCCCCCCCCCCCCCCCC(=O)NCCN(CCNC(=O)CCCCCCCCCCCCCCCCCCC)C(=O)CCC(=O)N[C@@H](CCCNC(=N)N)C(=O)N[C@@H](CCCNC(=N)N)C(N)=O.O=C(O)C(F)(F)F.O=C(O)C(F)(F)F [Compound A2-Sp1-A]	+ (percentages of transfection between 5-25%)
CCCCCCCCCCCCCCCCCC(=O)NCCCN(CCCNC(=O)CCCCCCCCCCCCCCCCC)C(=O)CCC(=O)N[C@@H](CCCNC(=N)N)C(=O)N[C@@H](CCCNC(=N)N)C(N)=O.O=C(O)C(F)(F)F.O=C(O)C(F)(F)F [Compound A2-Sp3-S]	+ (percentages of transfection between 5-25%)
CCCCCCCCCCCCCCCCCC(=O)NCCCN(CCCNC(=O)CCCCCCCCCCCCCCCCC)C(=O)CCC(=O)N[C@@H](CCCNC(=N)N)C(=O)N[C@@H](CCCNC(=N)N)C(=O)N[C@@H](CCCNC(=N)N)C(N)=O.O=C(O)C(F)(F)F.O=C(O)C(F)(F)F.O=C(O)C(F)(F)F [Compound A3-Sp3-S]	+ (percentages of transfection between 5-25%)
CCCCCCCCCCCCCCCCCCCCCCCC(=O)NCCN(CCNC(=O)CCCCCCCCCCCCCCCCCCCCCCC)C(=O)/C=C\C(=O)N[C@@H](CCCNC(=N)N)C(=O)N[C@@H](CCCNC(=N)N)C(N)=O.O=C(O)C(F)(F)F.O=C(O)C(F)(F)F [Compound A2-Sp2-L]	+ (percentages of transfection between 5-25%)
CCCCCCCCCCCCCCCC(=O)NCCN(CCNC(=O)CCCCCCCCCCCCCCC)C(=O)/C=C\C(=O)N[C@@H](CCCNC(=N)N)C(N)=O.O=C(O)C(F)(F)F [Compound A1-Sp2-P]	++ (percentages of transfection between 25-50%)
CCCCCCCCCCCCCCCCCCCC(=O)NCCCN(CCCNC(=O)CCCCCCCCCCCCCCCCCCC)C(=O)/C=C\C(=O)N[C@@H](CCCNC(=N)N)C(N)=O.O=C(O)C(F)(F)F [Compound A1-Sp4-A]	+ (percentages of transfection between 5-25%)
CCCCCCCCCCCCCCCCCCCC(=O)NCCN(CCNC(=O)CCCCCCCCCCCCCCCCCCC)C(=O)/C=C\C(=O)N[C@@H](CCCNC(=N)N)C(=O)N[C@@H](CCCNC(=N)N)C(N)=O.O=C(O)C(F)(F)F.O=C(O)C(F)(F)F [Compound A2-Sp2-A]	++ (percentages of transfection between 25-50%)
CCCCCCCCCCCCCCCCCCCC(=O)NCCCN(CCCNC(=O)CCCCCCCCCCCCCCCCCCC)C(=O)CCC(=O)N[C@@H](CCCNC(=N)N)C(N)=O.O=C(O)C(F)(F)F [Compound A1-Sp3-A]	+ (percentages of transfection between 5-25%)
CCCCCCCCCCCCCCCCCC(=O)NCCCN(CCCNC(=O)CCCCCCCCCCCCCCCCC)C(=O)/C=C\C(=O)N[C@@H](CCCNC(=N)N)C(=O)N[C@@H](CCCNC(=N)N)C(=O)N[C@@H](CCCNC(=N)N)C(N)=O.O=C(O)C(F)(F)F.O=C(O)C(F)(F)F.O=C(O)C(F)(F)F [Compound A3-Sp4-S]	+ (percentages of transfection between 5-25%)
CCCCCCCCCCCCCCCCCC(=O)NCCN(CCNC(=O)CCCCCCCCCCCCCCCCC)C(=O)CCC(=O)N[C@@H](CCCNC(=N)N)C(=O)N[C@@H](CCCNC(=N)N)C(N)=O.O=C(O)C(F)(F)F.O=C(O)C(F)(F)F [Compound A2-Sp1-S]	+ (percentages of transfection between 5-25%)
CCCCCCCCCCCCCCCCCCCCCCCC(=O)NCCCN(CCCNC(=O)CCCCCCCCCCCCCCCCCCCCCCC)C(=O)/C=C\C(=O)N[C@@H](CCCNC(=N)N)C(=O)N[C@@H](CCCNC(=N)N)C(=O)N[C@@H](CCCNC(=N)N)C(N)=O.O=C(O)C(F)(F)F.O=C(O)C(F)(F)F.O=C(O)C(F)(F)F [Compound A3-Sp4-L]	++ (percentages of transfection between 25-50%)
